Data: PubChem BioAssay AID651630 (Sanford-Burnham Center for Chemical Genomics, 2012)
The source made the active and inactive calls.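 The calls were made as follows: active = lipid-stain IC50 at or below a set limit, with nuclear-stain toxicity IC50 at least five times higher; inactive = the rest.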

Legend:
DAPI = assay: triacylglycerol accumulation inhibitor potency, dose response, cell-based, panel, Nile Red and DAPI fluorescence, H9c2 (AID 651630); conditions: H9c2 cells, DAPI nuclear fluorescence (cytotoxicity counter-readout), oleic acid;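 also: cells exposed to compound overnight before fixation and staining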
TAG = assay: as above; conditions: H9c2 cells, Nile Red TAG fluorescence, oleic acid

## O=C(C[C@H]1C[C@H](C(=O)N2CCCCC2)[C@@]2(CCc3ccccc3)c3[nH]c4ccc(Cl)cc4c3CCN2C1=O)NCc1cccc(C(F)(F)F)c1
DAPI; run 1
  IC50 cytotoxicity (DAPI nuclear signal decrease): > 25 µM
DAPI; run 2
  IC50 cytotoxicity (DAPI nuclear signal decrease): > 25 µM
TAG; mean of runs
  IC50: 3.78 µM
TAG; run 1
  IC50: 2.76 µM
TAG; run 2
  IC50: 4.8 µM

## CCOC(=O)Cc1ccc(Nc2nc3cc(-c4sccc4C)sc3c(=O)n2C)cc1
DAPI; mean of runs
  IC50 cytotoxicity (DAPI nuclear signal decrease): > 25 µM (inactive)
DAPI; run 1
  IC50 cytotoxicity (DAPI nuclear signal decrease): > 25 µM
DAPI; run 2
  IC50 cytotoxicity (DAPI nuclear signal decrease): > 25 µM
TAG; mean of runs
  IC50: 18.5 µM (inactive)
TAG; run 1
  IC50: 12.9 µM
TAG; run 2
  IC50: 24.1 µM

## COc1ccc(-c2ccc3[nH]c4c(c3c2)CCN2C[C@@H]([C@H](C)OC(=O)Nc3cc(Cl)cc(Cl)c3)[C@@H](N(C)C(=O)Nc3cc(Cl)cc(Cl)c3)C[C@@H]42)cc1
DAPI; mean of runs
  IC50 cytotoxicity (DAPI nuclear signal decrease): > 25 µM (inactive)
DAPI; run 1
  IC50 cytotoxicity (DAPI nuclear signal decrease): > 25 µM
DAPI; run 2
  IC50 cytotoxicity (DAPI nuclear signal decrease): > 25 µM
TAG; mean of runs
  IC50: 11.6 µM
TAG; run 1
  IC50: 9.42 µM
TAG; run 2
  IC50: 13.9 µM

## CN(C)CCNC=C(C(=O)Nc1ccc(Cl)cc1Cl)C(=O)Nc1ccc(Cl)cc1Cl
DAPI; run 1
  IC50 cytotoxicity (DAPI nuclear signal decrease): 20.8 µM
DAPI; run 2
  IC50 cytotoxicity (DAPI nuclear signal decrease): > 25 µM
TAG; mean of runs
  IC50: 8.69 µM
TAG; run 1
  IC50: 8.01 µM
TAG; run 2
  IC50: 9.36 µM

## CCN(CC)CCNc1ncnc2c1sc1nc(N3CCCC3)c3c(c12)CC(C)(C)OC3
DAPI; mean of runs
  IC50 cytotoxicity (DAPI nuclear signal decrease): > 25 µM (inactive)
DAPI; run 1
  IC50 cytotoxicity (DAPI nuclear signal decrease): > 25 µM
DAPI; run 2
  IC50 cytotoxicity (DAPI nuclear signal decrease): > 25 µM
TAG; mean of runs
  IC50: 18 µM (inactive)
TAG; run 1
  IC50: 16.9 µM
TAG; run 2
  IC50: 19.1 µM

## C[C@@]12C(=O)Nc3ccc(Br)cc3C(=O)N1[C@H]1c3cc(Br)ccc3OC[C@@H]1[C@@H]2c1ccccc1
DAPI; run 1
  IC50 cytotoxicity (DAPI nuclear signal decrease): > 25 µM
DAPI; run 2
  IC50 cytotoxicity (DAPI nuclear signal decrease): > 25 µM
TAG; mean of runs
  IC50: 4.98 µM
TAG; run 1
  IC50: 4.48 µM
TAG; run 2
  IC50: 5.47 µM

## Nc1c(Cl)cc(-c2csc(N3CCCC3c3nc4cc(Cl)c(Cl)cc4n3CCCO)n2)cc1Cl (stereo not drawn)
DAPI; mean of runs
  IC50 cytotoxicity (DAPI nuclear signal decrease): > 25 µM (inactive)
DAPI; run 1
  IC50 cytotoxicity (DAPI nuclear signal decrease): > 25 µM
DAPI; run 2
  IC50 cytotoxicity (DAPI nuclear signal decrease): > 25 µM
TAG; mean of runs
  IC50: 8.37 µM
TAG; run 1
  IC50: 7.74 µM
TAG; run 2
  IC50: 9 µM

## CCN(C(=O)COC(=O)c1cc(-c2ccccc2)nc2c1c(C)nn2-c1ccc(C)cc1)C1CCS(=O)(=O)C1 (stereo not drawn)
DAPI; mean of runs
  IC50 cytotoxicity (DAPI nuclear signal decrease): > 25 µM (inactive)
DAPI; run 1
  IC50 cytotoxicity (DAPI nuclear signal decrease): > 25 µM
DAPI; run 2
  IC50 cytotoxicity (DAPI nuclear signal decrease): > 25 µM
TAG; mean of runs
  IC50: > 25 µM (inactive)
TAG; run 1
  IC50: > 25 µM
TAG; run 2
  IC50: > 25 µM

## NC(Cc1ccc(C(F)(F)F)cc1)c1csc(Nc2nncc3ccccc23)n1 (stereo not drawn)
DAPI; mean of runs
  IC50 cytotoxicity (DAPI nuclear signal decrease): 21.4 µM (inactive)
DAPI; run 1
  IC50 cytotoxicity (DAPI nuclear signal decrease): 21.5 µM
DAPI; run 2
  IC50 cytotoxicity (DAPI nuclear signal decrease): 21.3 µM
TAG; mean of runs
  IC50: > 25 µM (inactive)
TAG; run 1
  IC50: > 25 µM
TAG; run 2
  IC50: > 25 µM

## O=C(NCC(c1ccc(F)cc1)N1CCOCC1)c1ccc([N+](=O)[O-])o1 (stereo not drawn)
DAPI; mean of runs
  IC50 cytotoxicity (DAPI nuclear signal decrease): 19.7 µM (inactive)
DAPI; run 1
  IC50 cytotoxicity (DAPI nuclear signal decrease): 19.7 µM
DAPI; run 2
  IC50 cytotoxicity (DAPI nuclear signal decrease): 19.6 µM
TAG; mean of runs
  IC50: > 25 µM (inactive)
TAG; run 1
  IC50: > 25 µM
TAG; run 2
  IC50: > 25 µM

## CC(C)NC(=O)N(C)C[C@H]1Oc2cc(C#Cc3ccc(F)cc3)ccc2S(=O)(=O)N([C@H](C)CO)C[C@H]1C
DAPI; mean of runs
  IC50 cytotoxicity (DAPI nuclear signal decrease): > 25 µM (inactive)
DAPI; run 1
  IC50 cytotoxicity (DAPI nuclear signal decrease): > 25 µM
DAPI; run 2
  IC50 cytotoxicity (DAPI nuclear signal decrease): > 25 µM
TAG; mean of runs
  IC50: 8.39 µM
TAG; run 1
  IC50: 11 µM
TAG; run 2
  IC50: 5.81 µM

## Cc1cc(NC(=O)CSc2nc(-c3ccco3)cc(C(F)(F)F)n2)no1
DAPI; mean of runs
  IC50 cytotoxicity (DAPI nuclear signal decrease): > 25 µM (inactive)
DAPI; run 1
  IC50 cytotoxicity (DAPI nuclear signal decrease): > 25 µM
DAPI; run 2
  IC50 cytotoxicity (DAPI nuclear signal decrease): > 25 µM
TAG; mean of runs
  IC50: > 25 µM (inactive)
TAG; run 1
  IC50: > 25 µM
TAG; run 2
  IC50: > 25 µM

## CC1CC2(C)Oc3ccccc3CC2C(C)C1CNCCCN(C)C (stereo not drawn)
DAPI; mean of runs
  IC50 cytotoxicity (DAPI nuclear signal decrease): 18.9 µM (inactive)
DAPI; run 1
  IC50 cytotoxicity (DAPI nuclear signal decrease): 18.4 µM
DAPI; run 2
  IC50 cytotoxicity (DAPI nuclear signal decrease): 19.5 µM
TAG; mean of runs
  IC50: > 25 µM (inactive)
TAG; run 1
  IC50: > 25 µM
TAG; run 2
  IC50: > 25 µM

## COc1ccc2[nH]c3c(c2c1)CCN1C(=O)C(CC(=O)NCc2cccc(C(F)(F)F)c2)C[C@H](C(=O)N2CCCCC2)[C@@]31CCc1ccccc1 (stereo partly drawn)
DAPI; mean of runs
  IC50 cytotoxicity (DAPI nuclear signal decrease): > 25 µM (inactive)
DAPI; run 1
  IC50 cytotoxicity (DAPI nuclear signal decrease): > 25 µM
DAPI; run 2
  IC50 cytotoxicity (DAPI nuclear signal decrease): > 25 µM
TAG; mean of runs
  IC50: 10 µM
TAG; run 1
  IC50: 14.8 µM
TAG; run 2
  IC50: 5.34 µM

## O=C(Nc1ccncc1)C1CCCN(S(=O)(=O)c2cccc3cccnc23)C1 (stereo not drawn)
DAPI; mean of runs
  IC50 cytotoxicity (DAPI nuclear signal decrease): > 25 µM (inactive)
DAPI; run 1
  IC50 cytotoxicity (DAPI nuclear signal decrease): > 25 µM
DAPI; run 2
  IC50 cytotoxicity (DAPI nuclear signal decrease): > 25 µM
TAG; mean of runs
  IC50: > 25 µM (inactive)
TAG; run 1
  IC50: > 25 µM
TAG; run 2
  IC50: > 25 µM

## COCCN(Cc1ccccc1)C(=O)C1CCN(C(=O)Nc2ccccc2)CC1
DAPI; mean of runs
  IC50 cytotoxicity (DAPI nuclear signal decrease): > 25 µM (inactive)
DAPI; run 1
  IC50 cytotoxicity (DAPI nuclear signal decrease): > 25 µM
DAPI; run 2
  IC50 cytotoxicity (DAPI nuclear signal decrease): > 25 µM
TAG; mean of runs
  IC50: > 25 µM (inactive)
TAG; run 1
  IC50: > 25 µM
TAG; run 2
  IC50: > 25 µM
